Where two headings read alike, the source gives them in different places. Residues, ends and D or L forms follow the SMILES beside them.
Columns and labels:
[1] = biological target: GPR55 (Homo sapiens, UniProt Q9Y2T6); experiment: Repeat of proposed literature pairing (mass redistribution and/or internalization); type: cell-based; set-up: hIL-2Ra signal peptide (N); expressed in transfected cells; conditions: target GPR55
Source text: (§1) DMR assays provide a single integrated readout of ligand-dependent cellular response, utilizing an optical biosensor in specialized microplates to detect wavelength shifts of reflected light as it passes through the biosensor and the lower portion of the cell (∼150-200 nm). As a signal pathway agnostic approach, DMR assays are well-suited to the study of GPCRs ([Fang et al., 2008], [Schröder et al., 2011]). The mass redistribution response (Δ picometer (pm)) likely reflects a number of intracellular events, including cytoskeletal rearrangement, protein trafficking and receptor internalization. […] After 3-5 min baseline recordings, peptides (10 μM) were added in duplicate wells using an electronic 384-channel Viaflo pipette (Integra Biosciences, Switzerland) and DMR responses were measured for 60 min at 22°C. […] Real-time data were processed using the BT to column converter MS-Excel macro (Corning) and analyzed in GraphPad Prism 7.0. DMR recordings in peptide screening experiments were buffer and solvent corrected and the area under the curve (AUC) was quantified. […]
(§2) A TR-FRET real-time internalization assay was used to examine peptide-dependent changes in orphan receptor localization as described previously ([Foster and Bräuner-Osborne, 2018]). […] For peptide screening analysis (both DMR and internalization assays), we calculated the area under the curve from the real-time traces. […]

[2] = biological target: T1, GPR139 (Homo sapiens, UniProt Q6DWJ6); experiment: as above; type: cell-based; conditions: GPR139; mean, SEM and n; read-out: pEC50, DMR (peak) (converted)
T1 construct: hIL-2Ra signal peptide (N); expressed in transfected cells
T1 sequence (Q6DWJ6 2-353 limits assumed): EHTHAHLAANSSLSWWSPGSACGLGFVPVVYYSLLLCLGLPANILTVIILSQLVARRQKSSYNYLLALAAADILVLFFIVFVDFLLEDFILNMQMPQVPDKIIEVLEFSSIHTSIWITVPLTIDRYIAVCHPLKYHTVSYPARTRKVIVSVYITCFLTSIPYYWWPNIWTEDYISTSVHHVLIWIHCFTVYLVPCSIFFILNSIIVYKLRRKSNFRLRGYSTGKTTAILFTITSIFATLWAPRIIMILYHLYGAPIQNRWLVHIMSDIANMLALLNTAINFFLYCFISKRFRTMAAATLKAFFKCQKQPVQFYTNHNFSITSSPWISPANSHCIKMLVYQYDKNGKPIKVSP
Source text: DMR assays provide a single integrated readout of ligand-dependent cellular response, utilizing an optical biosensor in specialized microplates to detect wavelength shifts of reflected light as it passes through the biosensor and the lower portion of the cell (∼150-200 nm). As a signal pathway agnostic approach, DMR assays are well-suited to the study of GPCRs ([Fang et al., 2008], [Schröder et al., 2011]). The mass redistribution response (Δ picometer (pm)) likely reflects a number of intracellular events, including cytoskeletal rearrangement, protein trafficking and receptor internalization. Orphan receptor-expressing cells were gently washed twice with assay buffer (HBSS with 1 mM CaCl2, 1 mM MgCl2, 20 mM HEPES, 0.01% pluronic F-68, pH 7.4) containing 0.1% DMSO and cells were equilibrated for 90 min at 22°C in the EPIC Benchtop (BT) System (Corning) to establish a stable DMR signal. After 3-5 min baseline recordings, peptides (10 μM) were added in duplicate wells using an electronic 384-channel Viaflo pipette (Integra Biosciences, Switzerland) and DMR responses were measured for 60 min at 22°C. 100 nM norepinephrine was included as an internal assay control to assess the cellular DMR response via endogenously-expressed adrenoceptors in the TREx 293 cells. Real-time data were processed using the BT to column converter MS-Excel macro (Corning) and analyzed in GraphPad Prism 7.0. DMR recordings in peptide screening experiments were buffer and solvent corrected and the area under the curve (AUC) was quantified. For subsequent validation experiments, peptides were diluted in assay buffer containing 0.1% DMSO and DMR assays were performed as above. […] Data represent mean ± standard error of the mean (SEM) from at least 3 biologically independent experiments.
A TR-FRET real-time internalization assay was used to examine peptide-dependent changes in orphan receptor localization as described previously ([Foster and Bräuner-Osborne, 2018]). Surface-expressed SNAP-tagged receptors were labeled with a cell-impermeable luminescent terbium cryptate (100 nM SNAP Lumi4-Tb; Cisbio, France) for 1 hr at 37°C. Cells were washed to remove excess terbium and incubated with fluorescein-O-acetic acid (100 μM; Sigma Aldrich) for 5 min at 37°C. Peptides were added as for DMR assays, and internalization responses were recorded for 60 min at 37°C using an EnVision 2104 Multimode plate reader (PerkinElmer). 100 nM GLP-1 was used as a positive control for SNAP-GLP1R internalization. Real-time internalization responses were calculated based on TR-FRET (excitation 340 nm; emission 520 nm and 615 nm), and were expressed as the ratio between donor (terbium) and acceptor (fluorescein) emission. For peptide screening analysis (both DMR and internalization assays), we calculated the area under the curve from the real-time traces. […] Validation experiments for receptor internalization were performed as above. Internalization data was processed in MS-Excel and area under the curve was used to generate concentration-response curves using GraphPad Prism 7.0. Data represent mean ± standard error of the mean (SEM) from at least 3 biologically independent experiments.

[3] = biological target: T1, GPR139; experiment: IP1 accumulation; type: cell-based; conditions: mean, SEM and n, read-out: pEC50, IP1 (converted)
Source text: Supplement mmc7.xlsx, sheet "Peptide validation data" | column: Emax; pEC50

[4] = system: GPR3; conditions: target GPR3
[5] = system: BRS3; experiment: Repeat of proposed literature pairing (mass redistribution and/or internalization); type: cell-based, human; conditions: target BRS3
[6] = system: GPR68; experiment: as above; type: cell-based, human; conditions: target GPR68
[7] = system: NPY4R; experiment: β-arrestin recruitment (Tango), known peptide receptors; type: cell-based, human; conditions: endogenous ligand(s) included in peptide library
Source text: Supplement mmc6.xlsx, sheet "Peptide GPCR controls" | column: Confirmed?

[8] = system: human GPCRs; set-up: method as in Guide to Pharmacology database; conditions: max reported value, ref Guide to Pharmacology database, cited from earlier work
Source text: Supplement mmc1.xlsx, sheet "HumanGPCRLigands" | column: pKi_value; pKd_value; pEC50_value; pIC50_value

[9] = biological target: T2, GPR1 (Homo sapiens, UniProt P46091); experiment: Repeat of proposed literature pairing (mass redistribution and/or internalization); type: cell-based; set-up: host or cells: HTLA cells (HEK293-derived)
T2 sequence (P46091 1-355): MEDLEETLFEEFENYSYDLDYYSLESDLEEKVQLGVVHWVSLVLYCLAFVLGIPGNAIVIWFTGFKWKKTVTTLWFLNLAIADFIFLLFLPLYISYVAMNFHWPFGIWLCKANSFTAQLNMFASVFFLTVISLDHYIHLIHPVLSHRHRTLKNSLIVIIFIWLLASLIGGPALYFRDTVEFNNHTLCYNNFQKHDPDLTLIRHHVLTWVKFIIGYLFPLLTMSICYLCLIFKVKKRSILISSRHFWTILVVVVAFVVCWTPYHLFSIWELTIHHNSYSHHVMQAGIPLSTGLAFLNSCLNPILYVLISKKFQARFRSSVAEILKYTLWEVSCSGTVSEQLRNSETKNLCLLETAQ
Source text: as §1, §2

[10] = biological target: T3, MRGPRX2 (Homo sapiens, UniProt Q96LB1); experiment: as above; type: cell-based; conditions: repeat of literature pairing across multiple assays; cleavage variants CST-14 and SRIF-28 tested; Figure S7A
T3 construct: host or cells: HTLA cells (HEK293-derived)
T3 sequence (Q96LB1 1-330): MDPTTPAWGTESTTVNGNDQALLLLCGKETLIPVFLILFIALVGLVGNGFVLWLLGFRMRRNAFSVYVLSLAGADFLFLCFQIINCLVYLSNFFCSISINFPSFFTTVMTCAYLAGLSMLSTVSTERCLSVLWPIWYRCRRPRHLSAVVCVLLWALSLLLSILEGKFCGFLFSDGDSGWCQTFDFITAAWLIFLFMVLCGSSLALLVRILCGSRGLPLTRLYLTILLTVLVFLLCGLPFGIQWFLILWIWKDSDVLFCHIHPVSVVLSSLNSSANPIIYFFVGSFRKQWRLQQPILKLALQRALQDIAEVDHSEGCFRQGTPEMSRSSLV
Source text: as §1, §2

[11] = biological target: T4, bombesin receptor 3 (human) (UniProt P32247)
T4 sequence: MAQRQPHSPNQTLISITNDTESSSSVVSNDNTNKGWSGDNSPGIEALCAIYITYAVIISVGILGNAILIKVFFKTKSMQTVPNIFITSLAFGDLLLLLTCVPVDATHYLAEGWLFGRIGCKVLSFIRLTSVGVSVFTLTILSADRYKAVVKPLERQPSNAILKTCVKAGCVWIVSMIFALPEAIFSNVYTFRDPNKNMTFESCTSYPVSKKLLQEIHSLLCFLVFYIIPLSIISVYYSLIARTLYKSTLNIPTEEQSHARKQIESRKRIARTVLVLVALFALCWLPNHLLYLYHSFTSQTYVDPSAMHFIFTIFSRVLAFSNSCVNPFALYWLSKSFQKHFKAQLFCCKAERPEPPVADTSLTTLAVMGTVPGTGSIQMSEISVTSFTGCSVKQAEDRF

[12] = reported ligand tested on receptor-expressing cell line
[13] = receptor CMKLR1 (cml1_human, Q99788)

GPR55, sequence (Q9Y2T6 2-319 limits assumed): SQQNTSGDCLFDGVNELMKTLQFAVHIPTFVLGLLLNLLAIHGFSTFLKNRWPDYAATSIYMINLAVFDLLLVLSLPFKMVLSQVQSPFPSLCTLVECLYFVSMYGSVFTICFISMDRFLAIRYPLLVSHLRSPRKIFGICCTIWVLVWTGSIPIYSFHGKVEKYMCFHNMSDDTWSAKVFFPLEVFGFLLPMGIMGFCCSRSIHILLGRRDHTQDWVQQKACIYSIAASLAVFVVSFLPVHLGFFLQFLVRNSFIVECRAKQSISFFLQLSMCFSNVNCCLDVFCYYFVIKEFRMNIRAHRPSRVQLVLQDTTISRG

With `Cc1c(C(=O)NN2CCCCC2)nn(-c2ccc(Cl)cc2Cl)c1-c1ccc(I)cc1` [AM251] the “Comment (response in DMR / internalization assays)” value [1] was “Robust response” and the “Active in DMR/internalization” value [1, 12] was “Yes”.

For `CSCC[C@H](NC(=O)[C@H](CO)NC(=O)[C@H](Cc1ccc(O)cc1)NC(=O)[C@@H](N)CO)C(=O)N[C@@H](CCC(=O)O)C(=O)N[C@@H](Cc1cnc[nH]1)C(=O)N[C@@H](Cc1ccccc1)C(=O)N[C@@H](CCCNC(=N)N)C(=O)N[C@@H](Cc1c[nH]c2ccccc12)C(=O)NCC(=O)N[C@@H](CCCCN)C(=O)N1CCC[C@H]1C(=O)N[C@H](C(=O)NCC(=O)N[C@@H](CCCCN)C(=O)N[C@@H](CCCCN)C(=O)N[C@@H](CCCNC(=N)N)C(=O)N[C@@H](CCCNC(=N)N)C(=O)N1CCC[C@H]1C(=O)N[C@H](C(=O)N[C@@H](CCCCN)C(=O)N[C@H](C(=O)N[C@@H](Cc1ccc(O)cc1)C(=O)N1CCC[C@H]1C(=O)N[C@@H](CC(N)=O)C(=O)NCC(=O)N[C@@H](C)C(=O)N[C@@H](CCC(=O)O)C(=O)N[C@@H](CC(=O)O)C(=O)N[C@@H](CCC(=O)O)C(=O)N[C@@H](CO)C(=O)N[C@@H](C)C(=O)N[C@@H](CCC(=O)O)C(=O)N[C@@H](C)C(=O)N[C@@H](Cc1ccccc1)C(=O)N1CCC[C@H]1C(=O)N[C@@H](CC(C)C)C(=O)N[C@@H](CCC(=O)O)C(=O)N[C@@H](Cc1ccccc1)C(=O)O)C(C)C)C(C)C)C(C)C` [Corticotropin, ACTH] (H-SYSMEHFRWGKPVGKKRRPVKVYPNGAEDESAEAFPLEF-OH), the EC50 [2] was 66.1 nM and the EC50 [3] was 1150 nM.

With `[Cl-].c1ccc2c(c1)[I+]c1ccccc1-2` [Diphenyleneiodonium chloride (DPI)] the “Comment (response in DMR / internalization assays)” value [4] was “Robust response in DMR, no response in internalization assay” and the “Active in DMR/internalization” value [4, 12] was “Yes (DMR)”.

For `O[C@@](Cc1ncc(CC2(C(F)(F)F)CC2)[nH]1)(c1ccc(-n2cccn2)cc1)C(F)(F)F` [MK-5046], the “Comment (response in DMR / internalization assays)” value [5] was “Robust response” and the “Active in DMR/internalization” value [5, 12] was “Yes”.

In the case of `Nc1nc(NCc2ccccc2)nc(-c2ccccc2CO)n1` [ZINC67740571 (ogerin)], the “Comment (response in DMR / internalization assays)” value [6] is reported as “Robust response in DMR, no response in internalization assay” and the “Active in DMR/internalization” value [6, 12] is reported as “Yes (DMR)”.

In the case of Pancreatic hormone (PH), the “Confirmed? (confirmation of b-arrestin recruitment)” value [7] is reported as “No”.

In the case of chemerin [reference compound], the pEC50_value [8, 13] is given as 8.5, the pKd_value [8, 13] is given as 8.3 and the “Peptide pairing for orphan receptor GPR1 (confirmed/unconfirmed)” value ([9]; repeat of literature pairing) is given as “Confirmed peptide pairings for orphans”. The “receptor-dependent activation by proposed ligand, GPR1” value ([9]; repeat of literature pairing across multiple assays, Figure S7A, Tables S5 and S7) was “selective receptor-dependent activation”.

For cortistatin, the “receptor-dependent activation by proposed ligand, MRGPRX2” value [10] was “selective receptor-dependent activation”.

For somatostatin [reference compound], the “receptor-dependent activation by proposed ligand, MRGPRX2” value [10] is listed as “selective receptor-dependent activation”, the pKi_value ([8]; receptor SSTR1 (ssr1_human, P30872)) is listed as 9.4 and the pKi_value ([8]; receptor SSTR2 (ssr2_human, P30874)) is listed as 10.2. For the same molecule, the pKi_value ([8]; receptor SSTR3 (ssr3_human, P32745)) was 9.9, the pKi_value ([8]; receptor SSTR4 (ssr4_human, P31391)) was 9.2 and the pKi_value ([8]; receptor SSTR5 (ssr5_human, P35346)) was 10.3.

GNLWATGHFM [neuromedin B] showed a pEC50 of neuromedin B responses in G (q/11) signaling assays (IP1 generation) [11] of 6.39 pEC50 and a pEC50 of neuromedin B responses in mass redistribution [11] of 7.43 pEC50.
